The experiment has as its target recombinant human UAE (Homo sapiens (Human), UniProt P22314). The experiment is described as follows: Ubiquitin Activating Enzyme (UAE) HTRF assay, human UAE.

The structures appear in SMILES notation. A value given as a limit tells only on which side of the number the result lay.

Sequence of recombinant human UAE (P22314 whole entry): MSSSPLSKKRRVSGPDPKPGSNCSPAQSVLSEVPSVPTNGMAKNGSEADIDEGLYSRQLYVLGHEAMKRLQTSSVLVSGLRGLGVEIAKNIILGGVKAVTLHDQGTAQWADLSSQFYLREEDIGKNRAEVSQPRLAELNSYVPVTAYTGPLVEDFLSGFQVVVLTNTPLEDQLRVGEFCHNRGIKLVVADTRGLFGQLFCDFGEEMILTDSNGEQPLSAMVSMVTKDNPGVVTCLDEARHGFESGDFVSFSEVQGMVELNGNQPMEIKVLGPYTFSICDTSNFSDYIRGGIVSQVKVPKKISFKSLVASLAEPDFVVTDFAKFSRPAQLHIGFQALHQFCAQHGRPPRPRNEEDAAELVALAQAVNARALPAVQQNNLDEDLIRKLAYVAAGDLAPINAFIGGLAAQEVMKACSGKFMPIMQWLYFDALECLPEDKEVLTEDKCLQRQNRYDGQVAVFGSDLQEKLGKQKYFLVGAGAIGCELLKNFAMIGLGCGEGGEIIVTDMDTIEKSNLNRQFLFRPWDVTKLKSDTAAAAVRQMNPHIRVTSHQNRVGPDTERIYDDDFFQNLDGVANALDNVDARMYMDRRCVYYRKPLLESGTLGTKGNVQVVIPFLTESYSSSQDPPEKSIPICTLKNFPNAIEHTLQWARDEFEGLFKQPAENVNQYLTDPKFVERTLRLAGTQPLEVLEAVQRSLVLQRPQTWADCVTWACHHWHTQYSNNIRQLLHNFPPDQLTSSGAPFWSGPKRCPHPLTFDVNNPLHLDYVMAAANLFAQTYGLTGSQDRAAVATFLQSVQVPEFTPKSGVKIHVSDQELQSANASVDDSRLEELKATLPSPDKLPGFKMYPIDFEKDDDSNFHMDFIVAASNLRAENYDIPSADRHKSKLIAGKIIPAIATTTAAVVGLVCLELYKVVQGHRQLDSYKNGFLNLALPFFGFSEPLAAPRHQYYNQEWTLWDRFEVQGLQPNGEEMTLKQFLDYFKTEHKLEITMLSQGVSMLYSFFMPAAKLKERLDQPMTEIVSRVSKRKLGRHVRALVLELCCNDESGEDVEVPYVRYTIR
Method: After incubation for 120 minutes, quantification of the FRET is performed on the Pherostar (BMG).
For compounds whose values are marked with an asterisk (*), mouse UAE was used. For all other compounds, human UAE was used.

For the compound `COc1ccccc1-c1cc2nccc(N[C@@H]3C[C@H](COS(N)(=O)=O)[C@@H](O)[C@H]3O)n2n1` (racemic) [Compound I-072, (rac)-((1R,2R,3S,4R)-2,3-dihydroxy-4-(2-(2-methoyphenyl)pyrazolo[1,5-a]pyrimidin-7-ylamino)cyclopentyl)methyl rel-sulfamate], the half-maximal inhibitory concentration (IC50) is less than 10 nM.
With `NS(=O)(=O)OC[C@H]1C[C@@H](Nc2ccnc3cc(-c4cccc(C(=O)c5ccccc5)c4)nn23)[C@H](O)[C@@H]1O` (racemic) [Compound I-073, (rac)-((1R,2R,3S,4R)-4-(2-(3-benzoylphenyl)pyrazolo[1,5-a]pyrimidin-7-ylamino)-2,3-dihydroxycyclopentyl)methyl rel-sulfamate] the figure was 10 to 100 nM; with `NS(=O)(=O)OC[C@H]1C[C@@H](Nc2ccnc3cc(-c4ccc5[nH]ccc5c4)nn23)[C@H](O)[C@@H]1O` (racemic) [Compound I-074, (rac)-[(1R,2R,3S,4R)-2,3-dihydroxy-4-{[2-(1H-indol-5-yl)pyrazolo[1,5-a]pyrimidin-7-yl]amino}cyclopentyl]methyl rel-sulfamate], 10 to 100 nM; with `NS(=O)(=O)OC[C@H]1C[C@@H](Nc2ccnc3cc(-c4cccc5[nH]ccc45)nn23)[C@H](O)[C@@H]1O` (racemic) [Compound I-075, (rac)-((1R,2R,3S,4R)-4-(2-(1H-indol-4-yl)pyrazolo[1,5-a]pyrimidin-7-ylamino)-2,3-dihydroxycyclopentyl)methyl rel-sulfamate], less than 10 nM.
The result for `NS(=O)(=O)OC[C@H]1C[C@@H](Nc2ccnc3cc(-c4cccc(N5CCCCC5)c4)nn23)[C@H](O)[C@@H]1O` (racemic) [Compound I-077, (rac)-((1R,2R,3S,4R)-2,3-dihydroxy-4-(2-(3-(piperidin-1-yl)phenyl)pyrazolo[1,5-a]pyrimidin-7-ylamino)cyclopentyl)methyl rel-sulfamate] reads less than 10 nM.
With `NS(=O)(=O)OC[C@H]1C[C@@H](Nc2ccnc3cc(-c4cccc(N5CCOCC5)c4)nn23)[C@H](O)[C@@H]1O` (racemic) [Compound I-078, (rac)-((1R,2R,3S,4R)-2,3-dihydroxy-4-(2-(3-morpholinophenyl)pyrazolo-[1,5-a]pyrimidin-7-ylamino)cyclopentyl)methyl rel-sulfamate] the figure was less than 10 nM; with `NS(=O)(=O)OC[C@H]1C[C@@H](Nc2ccnc3cc(-c4ccccc4SC(F)(F)F)nn23)[C@H](O)[C@@H]1O` (racemic) [Compound I-079, (rac)-((1R,2R,3S,4R)-2,3-dihydroxy-4-(2-(2-(trifluoromethylthio)phenyl)pyrazolo[1,5-a]pyrimidin-7-ylamino)cyclopentyl)methyl rel-sulfamate], 10 to 100 nM; with `NS(=O)(=O)OC[C@H]1C[C@@H](Nc2ccnc3cc(-c4ccc(SC(F)(F)F)cc4)nn23)[C@H](O)[C@@H]1O` (racemic) [Compound I-080, (rac)-((1R,2R,3S,4R)-2,3-dihydroxy-4-(2-(4-(trifluoromethylthio)phenyl)pyrazolo[1,5-a]pyrimidin-7-ylamino)cyclopentyl)methyl rel-sulfamate], 10 to 100 nM.
Regarding `NS(=O)(=O)OC[C@H]1C[C@@H](Nc2ccnc3cc(-c4csc5ccc(F)cc45)nn23)[C@H](O)[C@@H]1O` (racemic) [Compound I-081, (rac)-((1R,2R,3S,4R)-4-(2-(5-fluorobenzo[b]thiophen-3-yl)pyrazolo[1,5-a]pyrimidin-7-ylamino)-2,3-dihydroxycyclopentyl)methyl rel-sulfamate], the 50% inhibitory concentration (IC50) was less than 10 nM.
The result for `C#Cc1cccc(-c2cc3nccc(N[C@@H]4C[C@H](COS(N)(=O)=O)[C@@H](O)[C@H]4O)n3n2)c1` (racemic) [Compound I-083, (rac)-[(1R,2R,3S,4R)-4-{[2-(3-ethynylphenyl)pyrazolo[1,5-a]pyrimidin-7-yl]amino}-2,3-dihydroxycyclopentyl]methyl rel-sulfamate] reads less than 10 nM; that for `CCOC(C)(C)c1cccc(-c2cc3nccc(N[C@@H]4C[C@H](COS(N)(=O)=O)[C@@H](O)[C@H]4O)n3n2)c1` (racemic) [Compound I-084, (rac)-((1R,2R,3S,4R)-4-(2-(3-(2-ethoxypropan-2-yl)phenyl)pyrazolo[1,5-a]pyrimidin-7-ylamino)-2,3-dihydroxycyclopentyl)methyl rel-sulfamate], less than 10 nM.
With `NS(=O)(=O)OC[C@H]1C[C@@H](Nc2ccnc3cc(-c4ccc5c(c4)C(=O)c4ccccc4-5)nn23)[C@H](O)[C@@H]1O` (racemic) [Compound I-085, (rac)-((1R,2R,3S,4R)-2,3-dihydroxy-4-(2-(9-oxo-9H-fluoren-2-yl)pyrazolo[1,5-a]pyrimidin-7-ylamino)cyclopentyl)methyl rel-sulfamate] the figure was less than 10 nM.
As to `NS(=O)(=O)OC[C@H]1C[C@@H](Nc2ccnc3cc(-c4cc5ccccc5o4)nn23)[C@H](O)[C@@H]1O` (racemic) [Compound I-086, (rac)-((1R,2R,3S,4R)-4-(2-(benzofuran-2-yl)pyrazolo[1,5-a]pyrimidin-7-ylamino)-2,3-dihydroxycyclopentyl)methyl rel-sulfamate], the IC50 is less than 10 nM.
As to `NS(=O)(=O)OC[C@H]1C[C@@H](Nc2ccnc3cc(-c4cccc(N5CCCC5=O)c4)nn23)[C@H](O)[C@@H]1O` (racemic) [Compound I-087, (rac)-((1R,2R,3S,4R)-2,3-dihydroxy-4-(2-(3-(2-oxopyrrolidin-1-yl)phenyl)pyrazolo[1,5-a]pyrimidin-7-ylamino)cyclopentyl)methyl rel-sulfamate], the IC50 is less than 10 nM.
With `NS(=O)(=O)OC[C@H]1C[C@@H](Nc2ccnc3cc(-c4cc5ccc(Cl)cc5s4)nn23)[C@H](O)[C@@H]1O` (racemic) [Compound I-088, (rac)-((1R,2R,3S,4R)-4-(2-(6-chlorobenzo[b]thiophen-2-yl)pyrazolo[1,5-a]pyrimidin-7-ylamino)-2,3-dihydroxycyclopentyl)methyl rel-sulfamate] the figure was 10 to 100 nM; with `CCCOC(C)(C)c1cccc(-c2cc3nccc(N[C@@H]4C[C@H](COS(N)(=O)=O)[C@@H](O)[C@H]4O)n3n2)c1` (racemic) [Compound I-090, (rac)-((1R,2R,3S,4R)-2,3-dihydroxy-4-(2-(3-(2-propoxypropan-2-yl)phenyl)pyrazolo[1,5-a]pyrimidin-7-ylamino)cyclopentyl)methyl rel-sulfamate], less than 10 nM.
The result for `NS(=O)(=O)OC[C@H]1C[C@@H](Nc2ccnc3cc(-c4coc5ccc(Cl)cc45)nn23)[C@H](O)[C@@H]1O` (racemic) [Compound I-092, (rac)-((1R,2R,3S,4R)-4-(2-(5-chlorobenzofuran-3-yl)pyrazolo[1,5-a]pyrimidin-7-ylamino)-2,3-dihydroxycyclopentyl)methyl rel-sulfamate] reads less than 10 nM; that for `NS(=O)(=O)OC[C@H]1C[C@@H](Nc2ccnc3cc(-c4ccc5c(c4)oc4ccccc45)nn23)[C@H](O)[C@@H]1O` (racemic) [Compound I-093, (rac)-((1R,2R,3S,4R)-4-(2-(dibenzo[b,d]furan-3-yl)pyrazolo[1,5-a]pyrimidin-7-ylamino)-2,3-dihydroxycyclopentyl)methyl rel-sulfamate], less than 10 nM; that for `CCc1ccc2sc(-c3cc4nccc(N[C@@H]5C[C@H](COS(N)(=O)=O)[C@@H](O)[C@H]5O)n4n3)cc2c1` (racemic) [Compound I-095, (rac)-((1R,2R,3S,4R)-4-(2-(5-ethylbenzo[b]thiophen-2-yl)pyrazolo[1,5-a]pyrimidin-7-ylamino)-2,3-dihydroxycyclopentyl)methyl rel-sulfamate], 10 to 100 nM.
The result for `NS(=O)(=O)OC[C@H]1C[C@@H](Nc2ccnc3cc(-c4cncc(-c5ccccc5)n4)nn23)[C@H](O)[C@@H]1O` (racemic) [Compound I-121, (rac)-((1R,2R,3S,4R)-2,3-dihydroxy-4-{[2-(6-phenylpyrazin-2-yl)pyrazolo[1,5-a]pyrimidin-7-yl]amino}cyclopentyl)methyl rel-sulfamate] reads less than 10 nM.
As for `Cn1cc(-c2cccc(-c3cc4nccc(N[C@@H]5C[C@H](COS(N)(=O)=O)[C@@H](O)[C@H]5O)n4n3)c2)cn1` (racemic) [Compound I-122, (rac)-[(1R,2R,3S,4R)-2,3-dihydroxy-4-({2-[3-(1-methyl-1H-pyrazol-4-yl)phenyl]pyrazolo[1,5-a]pyrimidin-7-yl}amino)cyclopentyl]methyl rel-sulfamate], the IC50 was less than 10 nM.
For the compound `Cc1cc(N[C@@H]2C[C@H](COS(N)(=O)=O)[C@@H](O)[C@H]2O)n2nc(-c3ccccc3)cc2n1` (relative stereo) [Compound I-004, (rac)-{(1R,2R,3S,4R)-2,3-dihydroxy-4-[(5-methyl-2-phenylpyrazolo[1,5-a]pyrimidin-7-yl)amino]cyclopentyl}methyl rel-sulfamate], the IC50 was 100 to 1000 nM.
The result for `NS(=O)(=O)OC[C@H]1C[C@@H](Nc2cc(Cl)nc3cc(-c4ccccc4)nn23)[C@H](O)[C@@H]1O` (relative stereo) [Compound I-006, (rac)-{(1R,2R,3S,4R)-4-[(5-chloro-2-phenylpyrazolo[1,5-a]pyrimidin-7-yl)amino]-2,3-dihydroxycyclopentyl}methyl rel-sulfamate] reads 100 to 1000 nM.
Take `Cc1cnc2cc(-c3ccccc3)nn2c1N[C@@H]1C[C@H](COS(N)(=O)=O)[C@@H](O)[C@H]1O` (relative stereo) [Compound I-089, (rac)-{(1R,2R,3S,4R)-2,3-dihydroxy-4-[(6-methyl-2-phenylpyrazolo[1,5-a]pyrimidin-7-yl)amino]cyclopentyl}methyl rel-sulfamate]: the IC50 was 100 to 1000 nM.
As for `COC(=O)c1ccc2c(-c3cc4nccc(N[C@@H]5C[C@H](COS(N)(=O)=O)[C@@H](O)[C@H]5O)n4n3)cccc2c1` (relative stereo) [Compound I-096, (rac)-methyl rel-5-[7-({(1R,2S,3R,4R)-2,3-dihydroxy-4-[(sulfamoyloxy)methyl]cyclopentyl}amino)pyrazolo[1,5-a]pyrimidin-2-yl]-2-naphthoate], the IC50 is less than 10 nM.

The values above are taken from patent US9663525B2, “Pyrazolopyrimidinyl inhibitors of ubiquitin-activating enzyme” (Millennium Pharmaceuticals, Inc., priority 2012, dated 2017).
